In publication PMC10726920 (Cancer Medicine, 2023):
Several values for one entry are separate records, joined by “and”; a condition that tells them apart may be missing. Equal entries are not always repeated.

Tests used:
[1] = tested on: relapsed/refractory acute lymphoblastic leukemia; test: Response (modified IWG criteria) and overall survival, Phase II study NCI-9775; assay type: in vivo, human
Protocol: Evaluable patients for response include all patients who had measurable disease present at baseline, began treatment, and had their disease re‐evaluated. Response was assessed by bone marrow aspirates and biopsies performed every 2 months (mandated at the end of Cycle 2, Cycle 4, and Cycle 6). The best responses were captured as overall responses at any time point. Response was evaluated based on modified response criteria by the International Working Group (IWG) recommendations for acute myeloid leukemia (Table S1).[33]
This was a phase II trial designed using a Simon design with an interim analysis to evaluate efficacy. Efficacy (success) was defined as a complete response (CR or CR incomplete (i)). All patients meeting the eligibility criteria who signed a consent form and began treatment were deemed evaluable for toxicity. […] Thus, this regimen was to be considered ineffective if the success rate was 10% or less (null hypothesis), while the smallest success rate that would warrant subsequent studies was 30% (i.e., alternate research hypothesis). With a maximum of 26 evaluable patients, this trial had 85% power to detect a CR/CRi rate of 30% or greater (vs. 10% or less) with a one‐sided Type I error of 0.09. This trial was designed with a futility analysis after enrollment of 11 patients; if there were one or fewer successes observed in these first 11 patients, the regimen would be considered ineffective, and the study terminated. If two or more successes were observed, the enrollment would continue to a total of 26 evaluable patients. In the final analysis, if five or more of these 26 evaluable patients had achieved a CR or CRi, this would be considered sufficient evidence of promising activity in this patient population. Otherwise, if four or fewer CR/CRi events were observed, this regimen would not warrant further evaluation in this population.
The primary endpoint was the proportion of successes, which was estimated by the number of successes divided by the total number of evaluable patients. Secondary endpoints of duration of response (CR or CRi) and overall survival (OS) were evaluated using Kaplan–Meier techniques; the frequency of proceeding to allogeneic stem cell transplant after achieving response and adverse events (AEs), as evaluated using reported the NCI Common Terminology Criteria for Adverse Events (CTCAE) version 4.0, were presented using descriptive statistics.

[2] = tested on: BCR‐ABL‐positive ALL; parameters: method as in PMID 23090679; details: cited from earlier work

CC(C)n1nc(-c2ccc3oc(N)nc3c2)c2c(N)ncnc21 [sapanisertib]
CR or CRi ([1]; 3 mg daily 21 of 28 days): No patient
Median survival ([1]; 51.0‐NA 95% CI): 62 days
best response stable disease, patients ([1]; in vivo): 2 patients and 3 patients
best response stable disease, percent of patients ([1]; in vivo): 12.5% and 19%
disease progression, patients ([1]; in vivo): 6 patients
disease progression, percent of patients ([1]; in vivo): 38%
not evaluable because of early discontinuation, patients ([1]; in vivo): 7 patients
not evaluable because of early discontinuation, percent ([1]; in vivo): 44%
growth of syngeneic mouse model of BCR‐ABL‐positive ALL [2]: inhibited growth
